In patent US4694090A, “Chroman compounds useful as analgerics and antioxidants” (Kuraray Co., Ltd., priority 1984, dated 1987):
Structures can show the parent of a compound that is named as a salt.

What was measured:
[1] = Inhibition of linoleic acid oxidation (ferric thiocyanate absorbance at 500 mμ); settings: 0.2% by weight on linoleic acid basis, pH 9, 70° C.
Description: Inhibition of linoleic acid oxidation
A test solution (10 ml) was prepared by adding each test compound, in an amount of 0.2% by weight on the linoleic acid basis, to a borate buffer (pH 9) containing 10^-2 M sodium linoleate. A 0.2 ml portion of the test solution was heated at 70° C. for a specified period of time. After heating, 4.7 ml of 75% ethanol and 0.1 ml of 30% ammonium thiocyanate were added to said test solution, and the mixture was stirred well. Then, 0.1 ml of a ferrous chloride solution [the supernatant obtained by adding an aqueous ferrous sulfate solution (0.6 g/50 ml) and 10 ml of concentrated hydrochloric acid to an aqueous barium chloride solution (0.5 g/50 ml), followed by adequate stirring and standing for a while] was added to said mixture. Exactly 3 minutes later, the resulting solution was measured for the absorbance at 500 mμ. In this way, the trivalent iron formed by the oxidative action of sodium linoleate peroxides was assayed and, based on the assay data, the test compounds were compared with respect to antioxidant activity [cf. Shokuhin Kogaku Jikkensho (Experiments in Food Engineering), vol. I, edited by the Department of Food Engineering, Faculty of Agriculture, Kyoto University, pages 634-635]. The greater the absorbance of the test solution after heating is, the greater the amount of sodium linoleate peroxides formed is.

[2] = AOM (Antioxygen Method) test in ethyl linoleate, time till POV 100 meq/kg; settings: 0.020 g per 100 g ethyl linoleate, aeration 2.33 cc/sec., 97.8° C.
Description: To each 100 g of ethyl linoleate was added 0.020 g of one of the test compounds indicated in Table 7 to prepare a test solution. A 20 ml portion of each test solution was exposed to the accelerated conditions of aeration of 2.33 cc/sec. at 97.8° C. in an AOM (Antioxygen Method) test and the time period till the POV (peroxide value) reached 100 meq/kg was determined.

[3] = Japanese Laid-Open Patent Publication No. 94382/1980; cited from earlier work
[4] = Analgesic activity, acetic acid writhing test (mice); format: in vivo, Male ddY strain mice; settings: 100 mg/kg, s.c., male ddY mice, groups of ten
[5] = tested on: isoprenaline-induced bronchodilation; test: Bronchodilator activity, lung perfusion; settings: Table 8: guinea pig, in vitro, 300 μg
Description: (§1) β-(2,3-Dihydro-6-hydroxy-2,5,7,8-tetramethyl-2H-benzopyranyl)alanine hydrochloride was evaluated for analgesic activity in the writhing test [cf. Koster et al., Fed. Proc., 18, 412 (1959)], local anesthetic activity in the tail pinch test [cf. Bianchi, C., Brit. J. Pharmacol., 11, 104 (1956)] and bronchodilator activity in lung perfusion [cf. Luduena, F. P., Arch. Int. Pharmacodyn., 111, 392 (1957)].
>40% reduction in Inhibited

[6] = Acute toxicity (oral administration); settings: mouse, in vivo, male mice
From the text: Among the chroman compounds (I), the chroman compounds (I-2) show excellent analgesic activity. In addition, these compounds have low toxicity. […] So, the chroman compounds (I-2) can be used as an analgesic.

[7] = Analgesic activity, writhing test (rat); format: in vivo; settings: i.p., 100 mg/kg
Description: as §1

[8] = Local anesthetic activity, tail pinch test; format: in vivo, Mouse; settings: s.c., 3%
Description: as §1

SMILES	Absorbance, solution after 1 hr. of heating [1]	Absorbance, solution after 2 hrs. of heating [1]	Absorbance, solution after 3 hrs. of heating [1]	Time till POV = 100 meq/kg [2]	other results
Cc1c(C)c2c(c(C)c1O)CCC(C)(C(N)C(=O)O)O2 (centres unmarked)	0.02	0.03	0.03	–	–
Cc1c(C)c2c(c(C)c1O)CCC(C)(CCC(N)C(=O)O)O2 (centres unmarked)	0.02	0.03	0.04	–	–
CC1(CC(N)C(=O)O)CCc2cc(O)ccc2O1 (centres unmarked)	0.02	0.03	0.03	–	–
Cc1cc(O)cc2c1OC(C)(CC(N)C(=O)O)CC2 (centres unmarked)	0.02	0.03	0.03	–	–
Cc1cc2c(c(C)c1O)CCC(C)(CC(N)C(=O)O)O2 (centres unmarked)	0.02	0.03	0.04	–	–
COc1c(O)c(C)c2c(c1OC)OC(C)(CC(N)C(=O)O)CC2 (centres unmarked)	0.02	0.03	0.05	–	–
Cc1c2c(c3ccccc3c1O)OC(C)(CC(N)C(=O)O)CC2 (centres unmarked)	0.02	0.03	0.05	–	–
CCOC(=O)C(N)CC1(C)CCc2c(C)c(O)c(C)c(C)c2O1 (centres unmarked)	0.02	0.03	0.05	–	–
CCCCCCCCCCCCCCCCCCOC(=O)C(N)CC1(C)CCc2c(C)c(O)c(C)c(C)c2O1 (centres unmarked)	0.03	0.04	0.07	–	–
Cc1c(C)c2c(c(C)c1O)CCC(C)(C(O)C(=O)O)O2 (centres unmarked)	–	–	–	2.3 h	–
Cc1c(C)c2c(c(C)c1O)CCC(C)(CC(O)C(=O)O)O2 (centres unmarked)	–	–	–	2.4 h	–
Cc1c(C)c2c(c(C)c1O)CCC(C)(CCC(O)C(=O)O)O2 (centres unmarked)	–	–	–	2.0 h	–
CCOC(=O)C(O)C1(C)CCc2c(C)c(O)c(C)c(C)c2O1 (centres unmarked)	–	–	–	2.1 h	–
CCOC(=O)C(O)CC1(C)CCc2c(C)c(O)c(C)c(C)c2O1 (centres unmarked)	–	–	–	2.3 h	–
COC(=O)C(O)CCC1(C)CCc2c(C)c(O)c(C)c(C)c2O1 (centres unmarked)	–	–	–	2.1 h	–
CC1(CC(O)C(=O)O)CCc2cc(O)ccc2O1 (centres unmarked)	–	–	–	2.2 h	–

SMILES	Absorbance, solution after 1 hr. of heating [1]	Absorbance, solution after 2 hrs. of heating [1]	Absorbance, solution after 3 hrs. of heating [1]	Time till POV = 100 meq/kg [2]	other results
Cc1cc(O)cc2c1OC(C)(CC(O)C(=O)O)CC2 (centres unmarked)	–	–	–	2.3 h	–
COc1c(O)c(C)c2c(c1OC)OC(C)(CC(O)C(=O)O)CC2 (centres unmarked)	–	–	–	2.2 h	–
Cc1c2c(c3ccccc3c1O)OC(C)(CC(O)C(=O)O)CC2 (centres unmarked)	–	–	–	1.9 h	–
Cc1c(C)c2c(c(C)c1OC(C)(C)COC(=O)c1cccnc1)CCC(C)(C)O2 [2-(2,2,5,7,8-pentamethyl-6-chromanyloxy)isobutyl nicotinate]	–	–	–	–	cholesterol lowering activity [3]: have cholesterol lowering activity
Cc1c(C)c2c(c(C)c1OC(C)(C)C(=O)OCCN(C)C)CCC(C)(C)O2 [2-(N,N-dimethylamino)ethyl 2-(2,2,5,7,8-pentamethyl-6-chromanyloxy)isobutyrate]	–	–	–	–	cholesterol lowering activity [3]: have cholesterol lowering activity
O=C1O[C@H]([C@@H](O)CO)C(O)=C1O [Ascorbic acid, reference compound]	0.10	0.21	0.30	–	–
CC(=O)Oc1ccccc1C(=O)O [Aspirin, reference compound]	–	–	–	–	inhibition [4]: 40.8%
Cc1c(C)c2c(c(C)c1O)CCC(C)(CC(N)C(=O)O)O2 (stereo not drawn) [Example 1, β-(2,3-dihydro-6-hydroxy-2,5,7,8-tetramethyl-2H-benzopyranyl)alanine hydrochloride]	–	–	–	–	inhibition [4]: 96.1%; isoprenaline-induced bronchodilation (in words) [5]: An inhibition of isoprenaline-induced bronchodilation is also observed; LD50 [6]: 2620 mg/kg; Activity observed (writhing score, criterion <50% of control group) ([7]; Rat, test 0.75 hr post-dose): 16%; inhibition of writhing ([7]; Table 8: rat): 84%; Activity observed (animals protected) ([8]; Mouse, tested at 15 min post-dose, criterion >3/5 protected): 5/5; local anesthetic activity (in words) ([8]; Table 8: mouse): demonstrated a local anesthetic activity
Cc1c(C)c2c(c(C)c1O)CCC(C)(CC(N)CO)O2 (centres unmarked) [Example 17, 2-amino-3-[2-(2,3-dihydro-6-hydroxy-2,5,7,8-tetramethyl-2H-benzopyranyl)]-1-propanol]	–	–	–	–	inhibition [4]: 83.7%
Cc1c(C)c2c(c(C)c1O)CCC(C)(CN)O2 (centres unmarked) [Example 19, (2,3-dihydro-6-hydroxy-2,5,7,8-tetramethyl-2H-benzopyranyl)methylamine hydrochloride]	–	–	–	–	inhibition [4]: 65.6%
O=C1OC(C(O)CO)C(O)=C1O (centres unmarked) [Sodium erithorbate, reference compound]	0.11	0.17	0.18	–	–
Cc1c(C)c2c(c(C)c1O)CCC(C)(CC(N)C(=O)O)O2 (centres unmarked) [drawing 62]	0.02	0.03	0.03	–	–
Cc1c(C)c2c(c(C)c1O)CCC(C)(CC(N)C(=O)O)O2 (centres unmarked) [drawing 70]	0.02	0.03	0.04	–	–
Cc1c(C)c2c(c(C)c1O)CCC(C)(CC(N)C(=O)O)O2 (centres unmarked) [drawing 71]	0.02	0.03	0.03	–	–
Cc1c(C)c2c(c(C)c1O)CCC(C)(CCCC(C)CCCC(C)CCCC(C)C)O2 (stereo not drawn) [α-Tocopherol, reference compound]	0.07	0.19	0.30	1.4 h	–
